Experimental data published in US20080032961A1, “Therapy employing LXRalpha modolators” (priority 2001, published 2008).

Tests used:
Format in all cases: cell-based
[1] = system: LXRα mRNA in 3T3-L1 adipocytes; assay: Northern blot analysis of LXRα mRNA in 3T3-L1 adipocytes; details: for LXRα mRNA (Northern blot of total RNA): differentiating 3T3-L1 cells, 22-R 5 μM, Darglitazone 1 μM, alone or in combination, 24 hours, FIG. 2
Procedure: We performed Northern blot analysis on total RNA from 3T3-L1 adipocytes treated with increasing doses of a PPARγ agonist. Adipocytes treated over a 24 hrs period with […] of Darglitazone. 20 μg total RNA was subjected to Northern blotting and probed with a ^32P-labeled LXRα cDNA probe. The signal was obtained by scanning the autoradiogram and normalised for 18S RNA expression. […] These concentrations are in agreement with concentrations required for activation of PPARγ in reporter assays (Lehmann et al. 1995).
(§1) 3T3-L1 cells committed to adipocyte differentiation were treated with either Darglitazone, the LXRα agonist 22-R-hydroxy cholesterol, or both. 22-R-hydroxy cholesterol (22-R) is a naturally occurring agonist for LXRα (Janowski et al. 1996). […] Therefore, treatment of 3T3-L1 pre-adipocytes with either a PPARγ agonist or an LXRα agonist leads to fat accumulation and increased expression of LXRα.
(§2) The 3T3-L1 cell line (ATCC) was maintained in DMEM supplemented with 10% fetal calf serum, 2 mM L-glutamine and penicillin/streptomycin at 37° C. Cells were grown to confluence and exposed to adipogenic reagents for 3 days, followed by culturing for 3 more days in medium containing insulin only as described elsewhere (Lin and Lane, 1992). Insulin was used at a concentration of 1 μg/ml, dexamethasone at 1 μM and isobutylmethylxanthine at 0.5 mM.
(§3) Total RNA from differentiated 3T3-L1 adipocytes or adipose tissue were extracted by the Trizol (Life Technologies, Inc.) method as recommended by the manufacturer. Northern blot analysis of RNA was performed as described earlier (Sorensen et al., 1994). 20 μg of total RNA was analyzed for LXRα and ribosomal protein 18S mRNA.

3T3-L1 cells = assay: Oil Red O staining of lipid droplet accumulation / adipocyte differentiation of 3T3-L1 cells; details: for lipid droplets (Oil Red-O staining): 3T3-L1 cells committed to adipocyte differentiation
Procedure: as §1, §2
Light microscopy and Oil Red O staining were used to monitor the characteristic cell rounding and lipid droplet accumulation in these cells during differentiation. Images were taken using a microscope (Leica DMIL) and a dual-colour charge coupled device camera (Leica MPS 60).

[2] = system: LXRα mRNA in human adipocytes; assay: Northern blot analysis of LXRα mRNA in human adipocytes; details: 1 μM Darglitazone, 5 μM 22-(R)-hydroxy cholesterol or both, 48 hrs, FIG. 3
Procedure: Human adipocytes were obtained from breast reduction surgery. Pieces of adipose tissue (5-600 mg) were prepared under sterile conditions and used for incubations in plastic tubes essentially as described (Ottosson et al., 1994). PolyA+ RNA was isolated and subjected to Northern blot analysis (FIG. 3).
as §3

| SMILES | LXRα mRNA (Northern blot of total RNA) [1] | lipid droplets (Oil Red-O staining) (3T3-L1 cells) | adipocyte differentiation of 3T3-L1 pre-adipocytes (3T3-L1 cells; 3T3-L1 pre-adipocytes) | expression levels of LXRα mRNA (Northern blot of PolyA+ RNA) [2] | induction of LXRa mRNA ([1]; 3T3-L1 adipocytes, 24 hrs, 0.01, 0.1, and 1 mM, normalised for 18S RNA, FIG. 1) |
| --- | --- | --- | --- | --- | --- |
| CC(C)CC[C@@H](O)[C@@H](C)[C@H]1CC[C@H]2[C@@H]3CC=C4C[C@@H](O)CC[C@]4(C)[C@H]3CC[C@]12C [22-R-hydroxy cholesterol] | increase | gradually larger lipid droplets | enhances adipocyte differentiation | increased expression levels | – |
| Cc1oc(-c2ccccc2)nc1CCC(=O)c1ccc(CC2SC(=O)NC2=O)cc1 (centres unmarked) [Darglitazone] | increase | gradually larger lipid droplets | – | increased expression levels | approximately 5 fold |
